{"source": "patent US12551577B2", "about": "“7-ethyl-10-hydroxycamptothecin drug precursor with fluorescence activity, and preparation method and use thereof” (SOOCHOW UNIVERSITY, priority 2021, dated 2026)", "test": "Solubility in chloroform by weight loss method", "format": "physicochemical", "settings": "2 mg in 300 μL chloroform", "experimental": "The weights of the two centrifuge tubes were recorded on an analytical balance, respectively. […] 300 μL of chloroform was added to the centrifuge tube, shaken, and centrifuged. […] The solubility of different compounds in chloroform was estimated by the weight loss method (where the specific operation includes pipetting the solution, and lyophilizing the remaining solid and weighing).", "data": [{"smiles": "CCc1c2c(nc3ccc(O)cc13)-c1cc3c(c(=O)n1C2)COC(=O)[C@]3(O)CC", "note": "[SN38, 7-Ethyl-10-hydroxycamptothecin]", "values": [{"measurement": "solubility in chloroform", "result": "hardly soluble"}]}]}
